{"source": "patent US20220184000A1", "about": "“USE OF CANNABIDIOL IN THE TREATMENT OF DRAVET SYNDROME” (priority 2019, published 2022)", "assay_type_in_all_cases": "in vivo", "key": {"[1]": {"system": "Scn1a^−/− mice", "assay": "Neonatal welfare scoring (TNW) in Scn1a^−/− mice, Study I", "protocol": "129S-Scn1a^tm1Keammjax heterozygote mice (Jackson Laboratory, USA) were maintained in and bred together to obtain Scn1a^−/− and wild type (WT) animals used for this Study (n=10 per group).\n(§1) Following genotyping, animals were randomly divided into four groups WT vehicle-treated, WT CBD-treated, Scn1a^−/− vehicle-treated and Scn1a^−/− CBD-treated (n=10/group). They were injected subcutaneously twice daily with either CBD (100 mg/kg) or its vehicle (ethanol:Kolliphor®:0.9% saline=2:1:17) from P8 until P25 or death (whichever was earlier).\nA twice daily welfare check was conducted throughout the entire duration of the study. Drug administration was conducted at 0800 h and followed by welfare checks. Conversely, afternoon welfare checks were conducted from 1600 h and followed by drug administration in order to provide the maximum possible time between doses. […]\nThe parameters used for the welfare assessment were: weight, natural activity (NA; 0-3), reflex/response to touch (RT; 0-3), orbital tightening (OT; 0-2), and body condition score (BC; 1-3). A total neonatal welfare score (TNW; range 0-8) was calculated by adding together scores from NA, RT, and […].\n(§2) In Study I, the welfare parameters were analysed using SPSS 24 (IBM SPSS Statistics®, UK), whilst survival data were analysed using GraphPad Prism 6 software (GraphPad Software, Inc., USA). […] All the data are expressed as mean±SEM. […]"}, "[2]": {"system": "Scn1a^−/− mice", "assay": "Survival in Scn1a^−/− mice, Study I (acute model of Dravet syndrome)", "conditions": "CBD-treated Scn1a^−/− mice; 100 mg/kg s.c. twice daily from P8; n=10; vehicle 15.5 days; Mantel-Cox p=0.003; FIG. 1B", "protocol": "as §1\nAnimal suffering was minimised by employing a validated, welfare scoring system alongside a mathematical model to predict death. In this way, any animal for which the model predicted death could be sacrificed 0.5 day before enduring the maximal severity of the disease.\nAdditionally, surface temperature (ST) threshold was employed such that if the sum of the ST scores over the last 1.5 days, was equal to or greater than 3, the animal would be killed by cervical dislocation within 0.5 day.\nas §2, with “USA). Data obtained from welfare parameters were compared using a three-way ANOVA to observe the main effects of treatment, genotype and time, and their two-way and three-way interactions.” for “USA).”"}, "[3]": {"system": "Scn1a^+/− mice", "assay": "Social interaction test, Study II", "conditions": "CBD 100 mg/kg s.c. twice daily", "protocol": "(§3) Here, Scn1a^+/− were randomly divided into two groups and subcutaneously injected with either CBD (100 mg/kg twice daily; n=12) or its vehicle (ethanol:Kolliphor®:0.9% saline=2:1:17; n=29) from P8 onwards until P52 or death (whichever was earlier).\nThe social interaction test was conducted in the home cage of test mouse to assess the social behaviour of the animals (Sato, Mizuguchi, & Ikeda, 2013). On test day, cage mate(s) were removed from the home cage of the test mouse and the mouse remained in isolation for 15 minutes. A novel wild type mouse of same strain, same sex and similar weight to the test mouse was then introduced to the home cage of the test mouse. Activity was video recorded (Sony DCR-SX21E) for 10 minutes and the obtained video files were blinded at the end of all experiments. Time spent in active interactions (e.g. close following, sniffing, allogrooming/social grooming and mounting) and number of rearing (lifting the front paws on the air) occasions were coded offline using Observer XT 12 (Noldus, Netherlands). Aggressive behaviours were not considered as social interactions and were not coded. In this test, a reduced social interaction is considered as autistic-like behaviour (Sato et al., 2013), while increased rearing occasions is sign of defensive escapes (Kaplan et al., 2017).\n(§4) In Study II, the data were analysed in GraphPad Prism 6 software. Survival curves of Scn1a^+/− vehicle-treated and Scn1a^+/− CBD-treated group were compared using a Mantel-Cox test. […] Data obtained from rotarod, gait, social interaction (active interaction), EPM, sucrose preference, RAM (RME) tests were normally distributed and the differences between the three groups were analysed by one-way ANOVA. […] Parametric data are presented in scattered dot plot in the figures and are expressed as mean±SEM. Non-parametric data are presented in box plot in the figures and are expressed as median, min to max, and interquartile range (IQR). […]"}, "[4]": {"system": "Scn1a^+/− mice", "assay": "Sucrose preference test, depression-like behaviour, Study II", "conditions": "CBD 100 mg/kg s.c. twice daily", "protocol": "as §3\nThe sucrose preference test was carried out to assess the depression-like behaviour (Serova, Mulhall, & Sabban, 2017). The animals were separately housed during this test. Here, 24 hours before the test, animals were trained to drink from two bottles each containing 2% sucrose. On the first day of test, the animals were provided with a pre-weighed bottle of 2% sucrose and another containing a pre-weighed volume of tap water. The positions of the bottles were swapped after 24 hours to avoid any side preferences. After 48 hours, both bottles were weighed, and sucrose preference was calculated by using the following formula: […]\nas §4, with “software.” for “software. Survival curves of Scn1a^+/− vehicle-treated and Scn1a^+/− CBD-treated group were compared using a Mantel-Cox test.”"}}}
{"compound": "C=C(C)[C@@H]1CCC(C)=C[C@H]1c1c(O)cc(CCCCC)cc1O", "note": "[CBD, cannabidiol]", "values": [{"measurement": "mean total neonatal welfare (TNW) score", "setting": "[1]; Scn1a^−/− CBD-treated group, CBD 100 mg/kg s.c. twice daily from P8 until P25 or death, n=10, mean±SEM, score range 0-8, vehicle group 3.66±0.04", "value": "2.85±0.04"}, {"measurement": "welfare scores versus vehicle-treated Scn1a^−/− mice (post hoc)", "setting": "[1]; from P12 to P16, CBD 100 mg/kg s.c. twice daily, p<0.01, FIG. 1A", "value": "delayed the worsening of welfare scores"}, {"measurement": "median survival", "setting": "[2]", "value": 16.25, "unit": "days"}, {"measurement": "rearing events, Scn1a^+/− CBD-treated versus WT vehicle-treated", "setting": "[3]; p=0.55", "value": "No difference"}, {"measurement": "time spent on active interaction, Scn1a^+/− vehicle-treated compared to Scn1a^+/− CBD-treated", "setting": "[3]; statement describes vehicle group relative to CBD group (n=10), p=0.0003, FIG. 4A", "value": "significantly less time"}, {"measurement": "number of rearing occasions, Scn1a^+/− vehicle-treated compared to Scn1a^+/− CBD-treated", "setting": "[3]; statement describes vehicle group relative to CBD group, p=0.0003, FIG. 4B", "value": "significantly higher number of rearing occasions"}, {"measurement": "sucrose preference, Scn1a^+/− CBD-treated versus WT vehicle-treated", "setting": "[4]; p=0.36", "value": "similar"}, {"measurement": "sucrose preference, Scn1a^+/− vehicle-treated compared to Scn1a^+/− CBD-treated", "setting": "[4]; statement describes vehicle group relative to CBD group (n=10), p=0.01, FIG. 4D", "value": "reduced preference for sucrose"}]}
